Values after ≈ are worked out from the molar mass of the structure shown.
Key:
Daphnia magna [1] = experiment: whole plant or invertebrate; format: in vivo; settings: for EC50: Daphnia magna, read-out: Mean EC50
Experimental: Determination of the EC50 Value in Test Tubes
Using Daphnia magna as a test species a series of test concentrations of the standard reference toxicant CuSO4 was established in triplicate. Each replicate consisted of 10 ml of test media in a 15 ml glass test tube. Five organisms were placed in each tube. The tubes were then maintained for a period of one hour at ambient room environmental conditions. At the end of one hour 0.4 mg of the substrate 4-Methylumbelliferyl b-D-galactoside (MUF) was added. Fifteen minutes after the addition of the MUF the test tubes were taken into a dark room. […] A record was made of the number of strongly fluorescing Daphnia magna bodies. […] These organisms were then compared to each of the other triplicate concentrations.
The data was then analyzed statistically by conventional methods (Methods for Measuring the Acute Toxicity of Effluents to Freshwater and Marine Organisms (Third Edition) EPA/600/4-85/013).
11 standard reference toxicants were then analyzed by the above method. […]

Daphnia magna [2] = experiment: Daphnia magna fluorescence bioassay in a multiwell plate (Example 1); format: in vivo; design: key to fluorescence of Daphnia magna: fluorescing; nonfluorescing; settings: for fluorescence of Daphnia magna / survival (all alive): replicates #1, #2, #3
From the text: Determination of an EC50 Value in a Multiwell Plate
The objective of this example was to determine the EC50 value and its confidence limits for the test substance copper sulfate ([…]) to the common water flea, Daphnia magna.
Using the invertebrate Daphnia magna as a test species a series of test concentratins are established with the standard reference toxicant copper sulfate, CuSo4, in triplicate at the following concentrations:
One ml of each of the above CuSO4 solutions was pippetted into a mutiwell plate (3 replications per concentration, 1 ml per replicate). To each of 18 wells in the plate 5 Daphnia magna were added and exposed to the test concentrations for a period of five minutes. Then to each of the 18 wells, with the exception of 0-B 1, 2 and 3, 1.0 mg of 4-Methylumbelliferyl b-D-Galactoside (MUF) was dropped onto the surface of each well. The powder settled to the bottom of each well. After 1 minute of exposure, each sample was read. An ultra-violet light (black light) was held over the multiwell in a dark room. The fluorescent intensity of Controls 0-A ppm (maximum intensity) and Controls 0-B ppm (minimum intensity) were utilized as baselines to compare the effects of test concentrations 0.01 through 10.0 ppm CuSO4.

[3] = Table 2, three tests at different times per toxicant, 1 hour exposure, 15 minutes after MUF

[Zn] [Zn, zinc]
Mean EC50 (Daphnia magna [1]; [3]): 4.3 ppm

CCCCCCCCCCCCOS(=O)(=O)O [NaLS]
EC50 (Daphnia magna [1]; [3]): 74.1 µg/mL (≈ 278 µM)

Oc1ccccc1 [Phenol]
EC50 (Daphnia magna [1]; 1 h): 37.1 µg/mL (≈ 394 µM)

[Cu] [Cu, copper]
EC50 for Cu with Daphnia magna (Daphnia magna [1]; test tubes, 1 hour exposure, 15 minutes after MUF): 0.23 ppm

[Cd] [Cd, cadmium]
Mean EC50 (Daphnia magna [1]; [3]): 0.41 ppm

C=O [Formaldehyde]
EC50 (Daphnia magna [1]; 1 h): 39.2 µg/mL (≈ 1310 µM)

copper sulfate [CuSO4]
fluorescence of Daphnia magna (Daphnia magna [2]; 0.01 ppm): f
survival (all alive) (Daphnia magna [2]; 0.01 ppm): all alive
fluorescence of Daphnia magna (Daphnia magna [2]; 0.1 ppm): f
survival (all alive) (Daphnia magna [2]; 0.1 ppm): all alive
fluorescence of Daphnia magna (Daphnia magna [2]; 1.0 ppm): f
survival (all alive) (Daphnia magna [2]; 1.0 ppm): all alive
sublethal adverse affect detected (Daphnia magna [2]; 10.0 ppm, in less than 10 minutes): sublethal adverse affect
fluorescence of Daphnia magna (Daphnia magna [2]; 10.0 ppm): nf
survival (all alive) (Daphnia magna [2]; 10.0 ppm): all alive
EC50 (Daphnia magna [2]; multiwell plate, 5 minutes exposure, MUF substrate, read after 1 minute): 3.2 ppm

Oc1c(Cl)c(Cl)c(Cl)c(Cl)c1Cl [NaPCP]
EC50 (Daphnia magna [1]; [3]): 1 µg/mL (≈ 3.75 µM)

[Cr] [Cr, chromium]
Mean EC50 (Daphnia magna [1]; [3]): 3.7 ppm

mercury [Hg]
Mean EC50 (Daphnia magna [1]; [3]): 0.02 ppm

c1ccccc1 [Benzene]
EC50 (Daphnia magna [1]; 1 h): 6.5 µg/mL (≈ 83.2 µM)

Cc1ccccc1 [Toluene]
EC50 (Daphnia magna [1]; 1 h): 6.3 µg/mL (≈ 68.4 µM)

Source: patent US5094944A, “Flourescent aquatic bioassay and procedure” (priority 1990, dated 1992)
